A short description of this data set: Oxidation and reduction potential of fullerodendrimer. The data set is classed as physicochemical.

For the compound `c12c3c4c5c1c1c6c7c2c2c8c3c3c9c4c4c%10c5c5c1c1c6c6c%11c7c2c2c7c8c3c3c8c9c4c4c9c%10c5c5c1c1c6c6c%11c2c2c7c3c3c8c4c4c9c5c1c1c6c2c3c41` [Example C60, C60], the first oxidation potential entry was “+1,120 mV” and the first reduction potential is given as −1,120 mV.

Source of the values: US20040175568A1, “Fullerodendrimer-comprising film” (priority 2003, published 2004).
